From US20220281863A1, “COMPOUNDS, COMPOSITIONS AND METHODS OF TREATING DISORDERS” (Reverie Labs, Inc., priority 2019, published 2022)

Molecular target: T1, CDK9/CycTI (Homo sapiens, UniProt P50750)
T1 construct: purchased Carna biosciences 04-110
Assay: In vitro kinase assay (ADP-Glo Kinase Assay Kit), CDK9/CycTI
Format: biochemical
Conditions: 30 ng CDK9/CycTI, 30 μM CDKtide, 10 μM ATP, 2 hours at room temperature; 8 to 10-point dose response (Tier2); read-out: IC50 Score
Procedure: In vitro kinase assay was performed in white, 384-low volume plates in 5 μl reaction volume consisting of 30 ng CDK9/CycTI (Carna biosciences #04-110), 30 μM CDKtide (Signalchem #C06-58) and 10 μM ATP made in reaction buffer (40 mM Tris, pH 7.5; 20 mM MgCl2; 0.1 mg/ml BSA; 50 μM DTT) at 1 μM & 10 μM compound concentration for Tier1 assay and 8 to 10-point dose response curve for Tier2 assay. After 2 hours of incubation at room temperature, the amounts of […] in the kinase reaction were quantified using ADP-Glo™ Kinase Assay Kit (Promega #V9102). Briefly, 5 μl of ADP-Glo™ reagent was added to stop the kinase reaction and plate was incubated for 40 minutes at room temperature. Subsequently, 10 μl of Kinase Detection Reagent was added and luminescence was recorded after 30 minutes of incubation at room temperature.
The inhibition of kinase activity was determined relative to positive control (2% DMSO) and IC50 was calculated using GraphPad prism software (four parameter-variable slope equation).

T1 sequence (P50750 whole entry): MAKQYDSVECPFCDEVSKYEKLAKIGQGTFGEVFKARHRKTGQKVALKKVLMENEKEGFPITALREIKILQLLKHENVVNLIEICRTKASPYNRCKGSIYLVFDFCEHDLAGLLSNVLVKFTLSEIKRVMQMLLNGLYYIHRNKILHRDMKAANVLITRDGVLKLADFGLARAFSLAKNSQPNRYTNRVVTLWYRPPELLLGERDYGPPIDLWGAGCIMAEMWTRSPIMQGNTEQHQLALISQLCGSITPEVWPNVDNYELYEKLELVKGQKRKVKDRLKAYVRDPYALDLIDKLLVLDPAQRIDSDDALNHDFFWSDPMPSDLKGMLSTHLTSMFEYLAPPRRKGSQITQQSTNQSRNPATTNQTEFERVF
T1 sequence (O60563 whole entry partner): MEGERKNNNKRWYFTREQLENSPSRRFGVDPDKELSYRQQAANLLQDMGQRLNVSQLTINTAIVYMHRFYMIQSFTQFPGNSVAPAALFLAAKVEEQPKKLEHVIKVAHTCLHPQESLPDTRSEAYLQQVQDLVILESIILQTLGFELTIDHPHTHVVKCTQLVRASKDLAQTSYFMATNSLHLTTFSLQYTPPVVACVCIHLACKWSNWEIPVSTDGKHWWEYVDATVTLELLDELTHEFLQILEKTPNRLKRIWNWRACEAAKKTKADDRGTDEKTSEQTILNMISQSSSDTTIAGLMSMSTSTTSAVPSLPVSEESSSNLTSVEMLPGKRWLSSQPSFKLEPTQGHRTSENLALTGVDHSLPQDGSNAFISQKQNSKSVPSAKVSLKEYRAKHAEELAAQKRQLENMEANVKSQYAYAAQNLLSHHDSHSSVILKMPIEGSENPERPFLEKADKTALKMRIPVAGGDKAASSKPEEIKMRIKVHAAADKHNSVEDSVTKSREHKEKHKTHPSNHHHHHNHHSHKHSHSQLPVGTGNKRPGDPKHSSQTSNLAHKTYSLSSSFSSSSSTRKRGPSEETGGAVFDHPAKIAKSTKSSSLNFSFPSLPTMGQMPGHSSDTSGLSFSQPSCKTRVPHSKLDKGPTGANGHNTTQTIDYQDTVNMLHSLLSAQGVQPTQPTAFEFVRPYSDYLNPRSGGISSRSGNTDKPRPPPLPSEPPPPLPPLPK

Structure (SMILES)	IC50
O=C(Nc1nc2ccc3cc(F)ccc3c2s1)[C@H]1CCN1 [Compound 90, (R)—N-(7-fluoronaphtho[2,1-d]thiazol-2-yl)azetidine-2-carboxamide]	500 to 1000 nM
CS(=O)(=O)N1CCC[C@@H]1C(=O)Nc1nc2ccc3cc(F)ccc3c2s1 [Compound 9, (R)—N-(7-fluoronaphtho[2,1-d]thiazol-2-yl)-1-(methylsulfonyl)pyrrolidine-2-carboxamide]	1 to 100 nM
O=C(Nc1nc2ccc3cc(F)ccc3c2s1)[C@@H]1CCCCN1 [Compound 68]	500 to 1000 nM
CC(=O)N1CCN(C)CC1C(=O)Nc1nc2ccc3cc(F)ccc3c2s1 (single isomer, unassigned) [Compound 66, 1-acetyl-N-(7-fluoronaphtho[2,1-d]thiazol-2-yl)-4-methylpiperazine-2-carboxamide]	1000 to 20000 nM
O=C(Nc1nc2ccc3cc(F)ccc3c2s1)[C@@H]1CCOC1 [Compound 60, (R)—N-(7-fluoronaphtho[2,1-d]thiazol-2-yl)tetrahydrofuran-3-carboxamide]	1 to 100 nM

Other lines, results leading:

IC50	Structure (SMILES)
1000 to 20000 nM	CC(C)(C)OC(=O)N1CCC[C@H](C(=O)Nc2nc3ccc4cc(F)ccc4c3s2)C1 [Compound 62, tert-butyl (S)-3-((7-fluoronaphtho[2,1-d]thiazol-2-yl)carbamoyl)piperidine-1-carboxylate]
500 to 1000 nM	CC(C)(C)OC(=O)N1CC[C@H](C(=O)Nc2nc3ccc4cc(F)ccc4c3s2)C1 [Compound 59, Tert-butyl (S)-3-((7-fluoronaphtho[2,1-d]thiazol-2-yl)carbamoyl)pyrrolidine-1-carboxylate]
1000 to 20000 nM	CC(C)(C)OC(=O)N1CC[C@H]1C(=O)Nc1nc2ccc3cc(F)ccc3c2s1 [Compound 84, Tert-butyl (S)-2-((7-fluoronaphtho[2,1-d]thiazol-2-yl)carbamoyl)azetidine-1-carboxylate]
